Data as given in patent publication US4255183A, “Substituted phenyl urea and herbicides for use in paddy field” (Hokko Chemical Industry Co., Ltd., priority 1977, dated 1981).
Read-outs that look alike come from different tables or passages of the source.

Key:
paddy rice [1] = experiment: Test Example 4: field test in submerged directly seeded paddy field, paddy rice; assay type: in vivo, paddy rice (Asahi species); conditions: Oryza sativa, 504 h; 300 g/10 are, emulsion, 2- to 3-leaf stage, 21 days after application
Description: (§1) In a Wagner pot of 1/500 are, paddy field soil (alluvial soil) was placed and 50 seeds of Echinochloa crus-galli var. oryzicola and 30 seeds of paddy rice were seeded in the surface layer of said soil and the submerging depth was kept at about 1 cm. When Echinochloa crus-galli var. oryzicola reached at the one leaf stage and 5-leaf stage, the emulsion of a predetermined concentration, prepared according to Example 4 was added dropwise. After 30 days from the treatment with the chemical, dry weights of Echinochloa crus-galli var. oryzicola and paddy rice were measured and the inhibition rate was calculated with reference to untreated area. [formula]
In a 10 m^2 paddy field, 30 g of Echinochloa crus-galli var. oryzicola seeds were seeded at the time of puddling and the depth of submerging was kept at 3-5 cm. 3 Days after the puddling, 50 g of paddy rice at the emergence stage (Asahi species) were seeded. When Echinochloa crus-galli var. oryzicola and paddy rice reached a 2- to 3-leaf stage, a predetermined dose of the emulsion prepared according to Example 4 was applied uniformly by means of a manual spraying machine. Test results were examined 21 days after the application of the chemicals in the similar manner as in Test Example 1.
The comparative chemical 1 used was that commercially available and the comparative chemical 2 used was prepared according to Example 4.

paddy rice [2] = experiment: Test Example 1: pot test on selectivity, inhibition of paddy rice; assay type: in vivo; conditions: for Inhibition (%) by treatment at 1-leaf stage, paddy rice / Inhibition (%) by treatment at 5-leaf stage, paddy rice / inhibition at 750 g/ha / inhibition at 1500 g/ha / inhibition at 3000 g/ha / inhibition at 6000 g/ha / inhibition at 9000 g/ha: dry weight 30 days after treatment; for inhibition at 750 g/ha / inhibition at 1500 g/ha / inhibition at 3000 g/ha / inhibition at 6000 g/ha / inhibition at 9000 g/ha: Oryza sativa, 720 h; for selectivity to paddy rice: trans-form, cis-form and mixtures compared
In short: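 Alluvial paddy soil in pots sown with Echinochloa crus-galli var. oryzicola (50 seeds) and paddy rice (30 seeds), submerged about 1 cm. Dry weights taken 30 days after chemical treatment; inhibition rate calculated relative to untreated area.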

paddy rice [3] = experiment: Test Example 3: field test in transplanted paddy field, paddy rice; assay type: in vivo, paddy rice (Asahi species); conditions: Oryza sativa; 300 g/10 are, granule, applied 25 days after transplantation, examined 60 days after transplantation
Description: as §1
In a 10 m^2 paddy field, young seedlings of paddy rice (Asahi species) at the 2,5-leaf stage were transplanted 30 days after the puddling the submerging at the depth of 3-5 cm. 25 Days after the transplantation, when Echinochloa crus-galli var. oryzicola reached 4-leaf stage, a predetermined dose of the granule prepared according to Example 1 was applied. Test results were examined 60 days after the transplantation of paddy rice in the similar manner as in Test Example 1.
Comparative chemicals used were all those commercially available and in the case of the comparative chemical 2, CNP was applied 3 days after the transplantation of paddy rice and after 25 days a mixture of Benthiocarb and Simetryne was applied.

Umbrella plant = experiment: Test Example 5: Wagner pot test, herbicidal effect on umbrella plant; assay type: in vivo; conditions: 20 days after application
Description: In a 1/7500 are Wagner pot, sieved paddy field soil (alluvial soil) was charged. Thereafter, in the center portion of the pot, 2 roots of paddy rice (Asahi species) at the 2- to 3-leaf stage were transplanted and 20 seeds of Bulrush per pot were seeded in the surface of the above soil. The pot was submerged at the depth of about 2 cm. The other Dopatrium junceum and umbrella plant were generated naturally. After seeding, when each of the weeds reached the same leaf age as defined in Table 5 given herein, a predetermined concentration of the emulsion prepared according to Example 4 was applied dropwise on the surface of the pot. The test was carried out by repeating the same test three times per area and the results were determined 20 days after the application of the chemicals with regard to the herbicidal effect and chemical injury on paddy rice on the basis of the evaluation index as shown below.
As the comparative chemicals Molinate, Benthiocarb and DCMU, those commercially available were used.
In the above table, the inhibition rate was calculated according to the method as described in Test Example 1.

[4] = 300 g/10a, leaf age 2 (first group of columns)
[5] = 300 g/10a, leaf age 2 (second group of columns)
[6] = 600 g/10a, leaf age 2 (first group of columns)
[7] = 600 g/10a, leaf age 2 (second group of columns)
[8] = 75 g/10 are, 1-leaf stage, read-out: Inhibition (%) by treatment at 1-leaf stage, paddy rice
[9] = 75 g/10 are, 5-leaf stage, read-out: Inhibition (%) by treatment at 5-leaf stage, paddy rice
[10] = 150 g/10 are, 1-leaf stage, read-out: Inhibition (%) by treatment at 1-leaf stage, paddy rice
[11] = 150 g/10 are, 5-leaf stage, read-out: Inhibition (%) by treatment at 5-leaf stage, paddy rice
[12] = 300 g/10 are, 1-leaf stage, read-out: Inhibition (%) by treatment at 1-leaf stage, paddy rice
[13] = 300 g/10 are, 5-leaf stage, read-out: Inhibition (%) by treatment at 5-leaf stage, paddy rice
[14] = 600 g/10 are, 1-leaf stage, read-out: Inhibition (%) by treatment at 1-leaf stage, paddy rice
[15] = 600 g/10 are, 5-leaf stage, read-out: Inhibition (%) by treatment at 5-leaf stage, paddy rice
[16] = 900 g/10 are, 1-leaf stage, read-out: Inhibition (%) by treatment at 1-leaf stage, paddy rice
[17] = 900 g/10 are, 5-leaf stage, read-out: Inhibition (%) by treatment at 5-leaf stage, paddy rice

In the case of `CC=CCOc1ccc(NC(=O)N(C)C)cc1` [Mixture of trans- and cis-forms 1:1], the inhibition at 3000 g/ha (paddy rice [1]) was 0%, the “Inhibition (%) by treatment at 1-leaf stage, paddy rice” value (paddy rice [2]; 75 g/10 are, 1-leaf stage) was 0% and the “Inhibition (%) by treatment at 5-leaf stage, paddy rice” value (paddy rice [2]; 75 g/10 are, 5-leaf stage) was 0%. For the same compound, the “Inhibition (%) by treatment at 1-leaf stage, paddy rice” value (paddy rice [2]; 150 g/10 are, 1-leaf stage) was 0%, the “Inhibition (%) by treatment at 5-leaf stage, paddy rice” value (paddy rice [2]; 150 g/10 are, 5-leaf stage) was 0% and the “Inhibition (%) by treatment at 1-leaf stage, paddy rice” value (paddy rice [2]; 300 g/10 are, 1-leaf stage) was 0%. The “Inhibition (%) by treatment at 5-leaf stage, paddy rice” value (paddy rice [2]; 300 g/10 are, 5-leaf stage) was 0%, the “Inhibition (%) by treatment at 1-leaf stage, paddy rice” value (paddy rice [2]; 600 g/10 are, 1-leaf stage) was 0% and the “Inhibition (%) by treatment at 5-leaf stage, paddy rice” value (paddy rice [2]; 600 g/10 are, 5-leaf stage) was 0%. For the same compound, the “Inhibition (%) by treatment at 1-leaf stage, paddy rice” value (paddy rice [2]; 900 g/10 are, 1-leaf stage) was 3%, the “Inhibition (%) by treatment at 5-leaf stage, paddy rice” value (paddy rice [2]; 900 g/10 are, 5-leaf stage) was 0% and the inhibition at 3000 g/ha (paddy rice [3]) was 0%. The “Weed kill degree, Umbrella plant” value (Umbrella plant; [4]) was 5 (100), the “Weed kill degree, Umbrella plant” value (Umbrella plant; [5]) was 5 (100) and the “Weed kill degree, Umbrella plant” value (Umbrella plant; [6]) was 5 (100). For the same compound, the “Weed kill degree, Umbrella plant” value (Umbrella plant; [7]) was 5 (100).

`C/C=C/COc1ccc(NC(=O)N(C)C)cc1` [trans-form, 3-(4-trans-crotyloxyphenyl)-1,1-dimethyl urea] gave an inhibition at 3000 g/ha (paddy rice [1]) of 0%, an inhibition at 750 g/ha (paddy rice [2]; [8]) of 0% and an inhibition at 750 g/ha (paddy rice [2]; [9]) of 0%. It also gave an inhibition at 1500 g/ha (paddy rice [2]; [10]) of 0%, an inhibition at 1500 g/ha (paddy rice [2]; [11]) of 0% and an inhibition at 3000 g/ha (paddy rice [2]; [12]) of 0%. For the same compound, the inhibition at 3000 g/ha (paddy rice [2]; [13]) was 0%, the inhibition at 6000 g/ha (paddy rice [2]; [14]) was 0% and the inhibition at 6000 g/ha (paddy rice [2]; [15]) was 0%. For the same compound, the inhibition at 9000 g/ha (paddy rice [2]; [16]) was 2%, the inhibition at 9000 g/ha (paddy rice [2]; [17]) was 0% and the “selectivity to paddy rice” value (paddy rice [2]) was “equivalent”. The inhibition at 3000 g/ha (paddy rice [3]) was 0%, the “Weed kill degree, Umbrella plant” value (Umbrella plant; [4]) was 5 (100) and the “Weed kill degree, Umbrella plant” value (Umbrella plant; [5]) was 5 (100). For the same compound, the “Weed kill degree, Umbrella plant” value (Umbrella plant; [6]) was 5 (100) and the “Weed kill degree, Umbrella plant” value (Umbrella plant; [7]) was 5 (100).

`C/C=C\COc1ccc(NC(=O)N(C)C)cc1` [cis-form, 3-(4-cis-crotyloxyphenyl)-1,1-dimethyl urea] showed an inhibition at 3000 g/ha (paddy rice [1]) of 0%, an inhibition at 750 g/ha (paddy rice [2]; [8]) of 0% and an inhibition at 750 g/ha (paddy rice [2]; [9]) of 0%. For the same compound, the inhibition at 1500 g/ha (paddy rice [2]; [10]) was 0%, the inhibition at 1500 g/ha (paddy rice [2]; [11]) was 0% and the inhibition at 3000 g/ha (paddy rice [2]; [12]) was 0%. It also gave an inhibition at 3000 g/ha (paddy rice [2]; [13]) of 0%, an inhibition at 6000 g/ha (paddy rice [2]; [14]) of 0% and an inhibition at 6000 g/ha (paddy rice [2]; [15]) of 0%. The inhibition at 9000 g/ha (paddy rice [2]; [16]) was 3%, the inhibition at 9000 g/ha (paddy rice [2]; [17]) was 0% and the “selectivity to paddy rice” value (paddy rice [2]) was “equivalent”. The inhibition at 3000 g/ha (paddy rice [3]) was 0%, the “Weed kill degree, Umbrella plant” value (Umbrella plant; [4]) was 5 (100) and the “Weed kill degree, Umbrella plant” value (Umbrella plant; [5]) was 5 (100). The “Weed kill degree, Umbrella plant” value (Umbrella plant; [6]) was 5 (100) and the “Weed kill degree, Umbrella plant” value (Umbrella plant; [7]) was 5 (100).
